Source: patent publication US20240424071A1, “NOVEL MUTANT OF RECOMBINANT GANODERMA LUCIDUM IMMUNOMODULATORY PROTEIN AND USE THEREOF” (CHANGCHUN INTELLICROWN PHARMACEUTICAL CO., LTD., priority 2021, published 2024)

B1: EEAEAEAEPK+rLZ-8 mutant: recombinant protein: spacer peptide EEAEAEAEPK (SEQ ID NO: 9) linked to rLZ-8 mutant (SEQ ID NO: 13) (protein)
chain: EEAEAEAEPKMSDTALIFRLAWDVKKLSFDYTPNWGRGNPNNFIDTVTFPKVLTDKAYTYRVAVSGRNLGVKPSYAVESKGSQKVNFLEYNSGYGIADTNTIQVFVVDPDTNNDFIIAQWN
modifications: EEAEAEAEPK-rLZ-8 mutant (D70K)

Tests used:
[1] = system: LI6669 human liver cancer orthotopic transplantation tumor; assay: LI6669 human liver cancer orthotopic transplantation tumor model (PDX), survival; format: in vivo, BALB/c nude mouse; settings: Group 2, 50 mg/kg QD p.o. for 28 days; solvent control […] days
Source text: LI6669 is a HuPrime® orthotopic transplantation model originated from a patient's liver cancer.
Tumor tissue was collected from a LI6669 tumor-bearing mouse, a HuPrime® orthotopic transplantation model of liver, and cut to tumor pieces with a diameter of 2-3 mm, which were inoculated into the upper left lobe of liver of a Balb/c nude mouse.
When the average tumor volume of the tumor-bearing mice reached about 50-150 mm^3, the mice were randomly grouped by weight according to Table 3 of “3. Design of Experiment”. The grouping day was set as Day 0, and the administration began on Day 1. […].
After tumor cell inoculation, route monitoring comprises the tumor growth and the effect of treatment on normal behaviors of animals, specially including the activity, food intake and water consumption, weight gain or loss, eyes, fur of experimental animals, and other abnormal conditions. The clinical symptoms observed during the experiments were all recorded in the original data. After drug administration, the mice were measured twice a week for their weights. Observation was made to record the mouse requiring euthanasia and the corresponding survival time.

[2] = system: human non-small cell lung cancer cell line A549; assay: Killing effect on tumor cells, CellTiter-Fluor Cell Viability Assay; format: cell-based; settings: 48 h, 2% fetal bovine serum medium
Method: CellTiter™-Flour Cell Viability Assay Reagent kit was used to detect the killing effects of the EAEA+rLZ-8 mutant (SEQ ID NO: 14) and the […]+rLZ-8 mutant (SEQ ID NO: 15) on tumor cells (human non-small cell lung cancer cell line A549) in vitro. The recombinant protein was diluted with 2% fetal bovine serum culture medium to produce test solutions with concentrations of 100 μg/mL, 50 μg/mL, 25 μg/mL, 12.5 μg/mL, 6.25 μg/mL, 3.125 μg/mL, 1.5625 μg/mL, 0.78125 μg/mL, 0.390625 μg/mL, 0.1953125 μg/mL, and 0.09765625 μg/mL, total 11 concentrations.
The dilutions were added into a 96-well plate containing A549 cells with 100 μL/well. For each group of concentration, 3 parallel wells were set and marked. A cell control group (i.e., cells only) was set at 100 μL/well, with 6 parallel wells. The plates were cultured in a CO2 incubator at 5% CO2 and 37° C. for 48 h.
100 μL of prepared CellTiter™-Flour Cell Viability Assay Reagent (1 mLL Assay Buffer; 1 μl GF-AFC Substrate) was added into each well. The plates were shaken for mixing well, and incubated in a CO2 incubator at 5% CO2 and 37° C. for not less than 30 min. The fluorescence value was detected with a microplate reader at a wavelength of 400EX/505EM, and the IC50value was calculated.

Row | Molecule | Median Survival [1] | IC50, killing effect on lung cancer cell line A549 [2]
1 | CNC(=O)c1cc(Oc2ccc(NC(=O)Nc3ccc(Cl)c(C(F)(F)F)c3)cc2)ccn1 [Sorafenib, reference compound] | >28 days | 
2 | B1 |  | 1.91 µg/mL
